In BindingDB's records for doi:10.1021/jm00069a011 (Boehringer Mannheim, 1993):

molecular target: T1, Gag-Pol polyprotein [588-1027]/[588-1147] (Human immunodeficiency virus 1, UniProt P04585); assay: HIV-1 RT Assay; details: not given
T1 construct: 588-1027; 588-1147

Question: Which IC50 does the source give for O=C1c2ccccc2C2(c3ccncc3)SCCN12 (stereo not drawn) [9b-(pyridin-4-yl)-2H,3H,5H,9bH-isoindolo[1,2-b][1,3]thiazol-5-one] here?
Answer: > 30 µM

Question: O=C1c2ccccc2C2(c3ccccc3)N1CCS2(=O)=O (stereo not drawn) [9b-phenyl-2H,3H,5H,9bH-1,4000000-isoindolo[1,2-b][1,3]thiazole-1,1,5-trione] was tested. Which IC50 did it give?
Answer: > 10 µM

Question: Which IC50 does the source give for O=C1c2cnccc2C2(c3ccccc3)SCCN12 (stereo not drawn) [2-phenyl-3-thia-6,10-diazatricyclo[6.4.0.0^{2,6}]dodeca-1(12),8,10-trien-7-one] here?
Answer: > 100 µM

Question: O=C1c2ccccc2C2(c3ccccc3)Sc3ccccc3N12 (stereo not drawn) [9-phenyl-8-thia-1-azatetracyclo[7.7.0.0^{2,7}.0^{10,15}]hexadeca-2,4,6,10,12,14-hexaen-16-one] was tested. Which IC50 did it give?
Answer: 40 µM

Question: How did the IC50 turn out when C[C@H]1CN2C(=O)c3ccccc3[C@@]2(c2ccccc2)O1 [(2S,9bR)-2-methyl-9b-phenyl-2H,3H,5H,9bH-isoindolo[1,2-b][1,3]oxazol-5-one] was run?
Answer: > 100 µM

Question: How did the IC50 turn out when O=C(O)[C@H]1CSC2(c3ccccc3)c3ccccc3C(=O)N12 (stereo partly drawn) [(3S)-5-oxo-9b-phenyl-2H,3H,5H,9bH-isoindolo[1,2-b][1,3]thiazole-3-carboxylic acid] was run?
Answer: > 100 µM

Question: How did the IC50 turn out when O=C1c2ncccc2C2(c3ccccc3)SCCN12 (stereo not drawn) [2-phenyl-3-thia-6,9-diazatricyclo[6.4.0.0^{2,6}]dodeca-1(12),8,10-trien-7-one] was run?
Answer: > 100 µM

Question: With O=C1c2ccccc2C2(c3ccccc3)NCCCN12 (stereo not drawn) [10b-phenyl-1H,2H,3H,4H,6H,10bH-pyrimido[2,1-a]isoindol-6-one] as the compound, how does the IC50 read?
Answer: > 10 µM

Question: Which IC50 does the source give for C[C@@H]1CN2C(=O)c3ccccc3[C@@]2(c2ccccc2)O1 [(2R,9bR)-2-methyl-9b-phenyl-2H,3H,5H,9bH-isoindolo[1,2-b][1,3]oxazol-5-one] here?
Answer: 37.6 µM

Question: With O=C1c2c(ccc3ccccc23)C2(c3ccccc3)SCCN12 (stereo not drawn) [11-phenyl-12-thia-15-azatetracyclo[8.6.0.0^{2,7}.0^{11,15}]hexadeca-1,3,5,7,9-pentaen-16-one] as the compound, how does the IC50 read?
Answer: > 100 µM

Question: O=C1c2ccccc2C2(c3ccccc3)NCCN12 (stereo not drawn) [9b-phenyl-1H,2H,3H,5H,9bH-imidazolidino[2,1-a]isoindol-5-one] was tested. Which IC50 did it give?
Answer: > 100 µM

same assay, conditions: pH 7.7; 37 °C

Question: With COc1ccc(C23SCCN2C(=O)c2ccccc23)cc1 (stereo not drawn) [9b-(4-methoxyphenyl)-2H,3H,5H,9bH-isoindolo[1,2-b][1,3]thiazol-5-one] as the compound, how does the IC50 read?
Answer: > 30 µM

Question: Which IC50 does the source give for O=C1c2ccccc2C2(c3ccc[nH]3)SCCN12 (stereo not drawn) [9b-(1H-pyrrol-2-yl)-2H,3H,5H,9bH-isoindolo[1,2-b][1,3]thiazol-5-one] here?
Answer: > 100 µM
